# Like-named read-outs stand apart in the source and are kept apart here.
# What was measured:
# [1] = tested on: PKCε−/− and PKCε+/+ mice; assay: locomotor activity in activity chambers after intraperitoneal injection; assay type: in vivo, mouse; conditions: for locomotor response (distance traveled), PKCε−/− compared to PKCε+/+: i.p.: diazepam 0.5, 1.5, 4.0 mg/kg, muscimol 0.1, 0.2, 0.4 mg/kg, MK-801 0.01, 0.02, 0.03 mg/kg
# [2] = tested on: GABAA receptor; assay: 36Cl− uptake in cortical microsacs from PKCε−/− and PKCε+/+ mice (GABAA receptor function); assay type: biochemical, mouse; conditions: for activation of GABAA receptors (muscimol-stimulated Cl− uptake): 10^−12M to 10^−9M, 1 μM muscimol
# [3] = tested on: PKCε−/− and PKCε+/+ mice; assay: loss of righting reflex (LORR) after intraperitoneal injection; assay type: in vivo, mouse; conditions: for LORR duration / sensitivity to sedative effects, PKCε−/− compared to wild-type: Example 3, earlier experiment, sedative doses of pentobarbital
# [4] = tested on: PKCε−/− and PKCε+/+ mice; conditions: two weeks liquid diet containing 5% ethanol; 2, 4, 6, 7 hours after removal
# Experimental: Withdrawal seizures known as handling-induced convulsions (HIC) can be induced in mice by handling them after chronic exposure to ethanol. […] Withdrawal seizures were evaluated in 4 PKCε^+/+ and 4 PKCε^−/− mice following two weeks exposure to a fully nutritious liquid diet containing 5% ethanol (Dyets, Bethlehem, Pa.) as the only source of food or fluid. Seizures were videotaped at 2, 4, 6, and 7 hours following removal of ethanol from the cage and rated by observers who were blind to the genotype and drug exposure. Data were averaged across time-points and mice.
# [5] = tested on: PKCε−/− and PKCε+/+ mice; conditions: 2-14% ethanol vs water, two-bottle choice
# [6] = tested on: PKCε−/− and PKCε+/+ mice; conditions: 2.0 g/kg i.p.
# Experimental: Probes were perfused with artificial cerebrospinal fluid (aCSF), and animals were allowed to recover overnight. Mice were placed in open field chambers equipped with photobeams, and dialysis sample tubes were changed at 10 min intervals.
# [7] = tested on: PKCε; assay: muscimol/flunitrazepam-stimulated 36Cl− uptake in saponin-permeabilized microsacs treated with PKCε inhibitor peptide; assay type: biochemical, mouse; conditions: for effect of peptide on the enhancing effect of flunitrazepam on muscimol-stimulated Cl− uptake: wild-type microsacs, 100 μM peptide, 1 μM muscimol and 0.1 μM flunitrazepam, 5 seconds
# Experimental: GABAA receptor function was tested directly in wild-type and mutant mice. […] Following a five minute incubation in a shaking water bath at 34° C., chloride uptake in 200 μl membrane aliquots was initiated by the addition and immediate vortexing of 200 μl of a solution containing […] (0.2 μCi/ml of assay buffer). Drugs (muscimol, flunitrazepam, or ethanol) were added only in the ^36Cl^− solution. […] Hg) onto a 2.5 cm Whatman GF/C glass microfiber filter, using a Hoefer manifold (Hoefer Scientific, San Francisco, Calif.). The filters were washed with an additional 12 ml of cold assay buffer. Filters were submerged in Filtron-X (National Diagnostics) and the amount of radioactivity on the filters was determined by liquid scintillation spectrometry. Muscimol-dependent uptake was defined as the total amount of ^36Cl^− taken up while muscimol was present in the medium minus the amount of ^36Cl^− taken up when muscimol was not present.
# Microsacs were then centrifuged again at 900× g for 15 min at 4° C. and re-suspended in assay buffer with protease inhibitors at 5 mg/ml immediately prior to assaying ^36Cl^− uptake.
# [8] = ethanol 3.2, 3.6, 4.0 g/kg i.p.
molecule,measurement,setting,value
C[C@]12N[C@H](Cc3ccccc31)c1ccccc12 [MK-801],"locomotor response (distance traveled), PKCε−/− compared to PKCε+/+",[1],No differences
"CC(=O)[C@H]1CC[C@H]2[C@@H]3CC[C@H]4C[C@H](O)CC[C@]4(C)[C@H]3CC[C@]12C [allopregnanolone, 3alpha-hydroxy-5alpha-pregnan-20-one]",activation of GABAA receptors (muscimol-stimulated Cl− uptake),[2]; microsacs from PKCε+/+ mice,comparatively little effect
same,activation of GABAA receptors (muscimol-stimulated Cl− uptake),[2]; microsacs from PKCε−/− mice,substantially activate
CN1C(=O)CN=C(c2ccccc2)c2cc(Cl)ccc21 [diazepam],"sensitivity to sedative effects (LORR), PKCε−/− compared to PKCε+/+","[3]; diazepam 20, 30, 40 mg/kg i.p., Example 6",30 fold
same,"locomotor response (distance traveled), PKCε−/− compared to PKCε+/+",[1],significant increase in distance traveled
CCO [ethanol],reduction in withdrawal seizure severity (HIC score) compared to wildtype littermates,[4],50%
same,"enhancement of muscimol-stimulated Cl− uptake, PKCε−/− microsacs compared to wild-type",[2]; 1 μM muscimol with 20 mM ethanol or 0.1 μM flunitrazepam,two-fold greater
same,"reduction in ethanol preference, PKCε−/− compared to PKCε+/+",[5],75%
same,extracellular dopamine levels in nucleus accumbens after administration,[6]; PKCε+/+ mice,transient increase in dopamine levels
same,extracellular dopamine levels in nucleus accumbens after administration,[6]; PKCε−/− mice,No change in dopamine levels
same,"LORR duration / sensitivity to sedative effects, PKCε−/− compared to wild-type",[3]; [8],significantly higher LORR duration
same,"time required to regain righting reflex (LORR duration), PKCε−/− compared to PKCε+/+","[3]; ethanol 3.2, 3.6, 4.0 g/kg i.p., Example 5",two-fold increase
same,"increase in locomotor activity, PKCε−/− compared to PKCε+/+","[1]; male mice, 2 g/kg ethanol i.p., 15-minute period",two-fold greater increase
NCc1cc(=O)[nH]o1 [muscimol],"Cl− uptake stimulated by direct agonist, knockout compared to wild-type","[2]; 0-20 μM muscimol, 5 seconds",similar
same,"locomotor response (distance traveled), PKCε−/− compared to PKCε+/+",[1],indistinguishable
CCCC(C)C1(CC)C(=O)NC(=O)NC1=O (centres unmarked) [pentobarbital],"LORR duration / sensitivity to sedative effects, PKCε−/− compared to wild-type",[3]; [8],two-fold greater sensitivity
same,"sensitivity to sedative effects (LORR), PKCε−/− compared to control mice","[3]; pentobarbital 30, 40, 50 mg/kg i.p., Example 6",three-fold greater sensitivity
"S-εV1-2: scrambled version of the εV1-2 peptide, LSETKPAV",effect of peptide on the enhancing effect of flunitrazepam on muscimol-stimulated Cl− uptake,[7],no effect
"εV1-2: selective inhibitor of PKCε, peptide EAVSLKPT",effect of peptide on muscimol and flunitrazepam-stimulated 36Cl− uptake,[7]; microsacs from PKCε−/− mice,did not affect
same,effect of peptide on the enhancing effect of flunitrazepam on muscimol-stimulated Cl− uptake,[7],markedly increased
